According to patent publication US20260097047A1, “Small molecule inhibitors of the ribosome biogenesis factor NVL2” (Board of Regents, The University of Texas System, priority 2023, published 2026):
Read-outs that look alike come from different tables or passages of the source.

Test system: HCT116 cells
Assay: Cell viability assay (CellTiter-Glo, 72 hours) in HCT116 human colorectal cancer cells
Format: cell-based
Conditions: Homo sapiens, HCT-116, HCT116, 72 hours, read-out: Activity
Summary of the method: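 Ten-point IC50 came from an asymmetric five-parameter fit of luminescence corrected to vehicle wells. ATP content was measured by CellTiter-Glo 72 h after dosing at 37 °C. Cells were seeded at 2,000/well the day before, with 0.5% DMSO in all wells.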

Row | Structure (SMILES) | IC50 (Table 5) [nM] | IC50 (Table 6) [nM]
1 | CC#CCN1C(=O)c2ccccc2Sc2cc(NC3CCOC3C)ccc21 (stereo not drawn) [10-(But-2-yn-1-yl)-7-((2-methyltetrahydrofuran-3-yl)amino)dibenzo[b,f][1,4]thiazepin-11 (10H)-one] |  | < 500
2 | CC#CCN1C(=O)c2ccccc2Sc2cc(Nc3ncnc(Cl)n3)ccc21 [10-(But-2-yn-1-yl)-7-((4-chloro-1,3,5-triazin-2-yl)amino)dibenzo[b,f][1,4]thiazepin-11 (10H)-one] | 1000 to 5000 | 
3 | CC#CCN1C(=O)c2ccc(C#N)cc2Sc2cc(Nc3nccc(C#N)c3C)ccc21 [10-(But-2-yn-1-yl)-7-((4-cyano-3-methylpyridin-2-yl)amino)-11-oxo-10,11-dihydrodibenzo[b,f][1,4]thiazepine-3-carbonitrile] | < 500 | 
4 | CC#CCN1C(=O)c2ccc(C#N)cc2Sc2cc(Nc3nnccc3C#N)ccc21 [10-(But-2-yn-1-yl)-7-((4-cyanopyridazin-3-yl)amino)-11-oxo-10,11-dihydrodibenzo[b,f][1,4]thiazepine-3-carbonitrile] | < 500 | 
5 | CC#CCN1C(=O)c2ccccc2Sc2cc(NC3COCC3OC)ccc21 (stereo not drawn) [10-(But-2-yn-1-yl)-7-((4-methoxytetrahydrofuran-3-yl)amino)dibenzo[b,f][1,4]thiazepin-11 (10H)-one] |  | < 500
6 | CC#CCN1C(=O)c2ccccc2Sc2cc(Nc3nnccc3C)ccc21 [10-(But-2-yn-1-yl)-7-((4-methylpyridazin-3-yl)amino)dibenzo[b,f][1,4]thiazepin-11 (10H)-one] | < 500 | 
7 | CC#CCN1C(=O)c2ccccc2Sc2cc(NC3COCC3C)ccc21 (stereo not drawn) [10-(But-2-yn-1-yl)-7-((4-methyltetrahydrofuran-3-yl)amino)dibenzo[b,f][1,4]thiazepin-11 (10H)-one] |  | < 500
8 | CC#CCN1C(=O)c2ccc(C#N)cc2Sc2cc(Nc3ncc(C#N)cc3C)ccc21 [10-(But-2-yn-1-yl)-7-((5-cyano-3-methylpyridin-2-yl)amino)-11-oxo-10,11-dihydrodibenzo[b,f][1,4]thiazepine-3-carbonitrile] | < 500 | 
9 | CC#CCN1C(=O)c2ccccc2Sc2cc(Nc3cc(C)cnn3)ccc21 [10-(But-2-yn-1-yl)-7-((5-methylpyridazin-3-yl)amino)dibenzo[b,f][1,4]thiazepin-11 (10H)-one] | < 500 | 
10 | CC#CCN1C(=O)c2ccccc2Sc2cc(Nc3ccc(C)nn3)ccc21 [10-(But-2-yn-1-yl)-7-((6-methylpyridazin-3-yl)amino)dibenzo[b,f][1,4]thiazepin-11 (10H)-one] | < 500 | 
11 | CC#CCN1C(=O)c2ccccc2Sc2cc(NCC3(C)COC3)ccc21 [10-(But-2-yn-1-yl)-7-(((3-methyloxetan-3-yl)methyl)amino)dibenzo[b,f][1,4]thiazepin-11 (10H)-one] |  | < 500
12 | CC#CCN1C(=O)c2ccccc2Sc2cc(NCC3COC3)ccc21 [10-(But-2-yn-1-yl)-7-((oxetan-3-ylmethyl)amino)dibenzo[b,f][1,4]thiazepin-11 (10H)-one] |  | 1000 to 5000
13 | CC#CCN1C(=O)c2ccccc2Sc2cc(NC3CCCOC3)ccc21 (stereo not drawn) [10-(But-2-yn-1-yl)-7-((tetrahydro-2H-pyran-3-yl)amino)dibenzo[b,f][1,4]thiazepin-11 (10H)-one] |  | < 500
14 | CC#CCN1C(=O)c2ccccc2Sc2cc(NC3CCOC3)ccc21 (stereo not drawn) [10-(But-2-yn-1-yl)-7-((tetrahydrofuran-3-yl)amino)dibenzo[b,f][1,4]thiazepin-11 (10H)-one] |  | < 500
15 | CC#CCN1C(=O)c2ccccc2Sc2cc(Nc3cccnn3)ccc21 [10-(But-2-yn-1-yl)-7-(pyridazin-3-ylamino)dibenzo[b,f][1,4]thiazepin-11 (10H)-one] | < 500 | 
16 | CC#CCN1C(=O)c2ccccc2Sc2cc(Nc3ccnnc3)ccc21 [10-(But-2-yn-1-yl)-7-(pyridazin-4-ylamino)dibenzo[b,f][1,4]thiazepin-11 (10H)-one] | < 500 | 
17 | CC#CCN1C(=O)c2ccccc2Sc2cc(Nc3ccccn3)ccc21 [10-(But-2-yn-1-yl)-7-(pyridin-2-ylamino)dibenzo[b,f][1,4]thiazepin-11 (10H)-one] | < 500 | 

Second part, the compound after the results:

Row | IC50 (Table 5) [nM] | IC50 (Table 6) [nM] | Structure (SMILES)
18 | < 500 |  | CC#CCN1C(=O)c2ccc(F)cc2Sc2cc(Nc3ncccc3C)ccc21 [10-(But-2-yn-1-yl)-3-fluoro-7-((3-methylpyridin-2-yl)amino)dibenzo[b,f][1,4]thiazepin-11 (10H)-one]
19 | < 500 |  | CC#CCN1C(=O)c2ccccc2Sc2cc(Nc3cnn(C)c3)ccc21 [10-(But-2-yn-1-yl)-7-((1-methyl-1H-pyrazol-4-yl)amino)dibenzo[b,f][1,4]thiazepin-11 (10H)-one]
20 | < 500 |  | CC#CCN1C(=O)c2ccccc2Sc2cc(Nc3ncc(C)nc3C)ccc21 [10-(But-2-yn-1-yl)-7-((3,5-dimethylpyrazin-2-yl)amino)dibenzo[b,f][1,4]thiazepin-11 (10H)-one]
21 | < 500 |  | CC#CCN1C(=O)c2ccccc2Sc2cc(Nc3ncc(C)cc3C)ccc21 [10-(But-2-yn-1-yl)-7-((3,5-dimethylpyridin-2-yl)amino)dibenzo[b,f][1,4]thiazepin-11 (10H)-one]
22 | < 500 |  | CC#CCN1C(=O)c2ccc(C#N)cc2Sc2cc(Nc3nc(C)cnc3C)ccc21 [10-(But-2-yn-1-yl)-7-((3,6-dimethylpyrazin-2-yl)amino)-11-oxo-10,11-dihydrodibenzo[b,f][1,4]thiazepine-3-carbonitrile]
23 | < 500 |  | CC#CCN1C(=O)c2ccccc2Sc2cc(Nc3nc(C)cnc3C)ccc21 [10-(But-2-yn-1-yl)-7-((3,6-dimethylpyrazin-2-yl)amino)dibenzo[b,f][1,4]thiazepin-11 (10H)-one]
24 | < 500 |  | CC#CCN1C(=O)c2ccccc2Sc2cc(Nc3ncccc3C(F)(F)F)ccc21 [10-(But-2-yn-1-yl)-7-((3-(trifluoromethyl)pyridin-2-yl)amino)dibenzo[b,f][1,4]thiazepin-11 (10H)-one]
25 | < 500 |  | CC#CCN1C(=O)c2ccc(F)cc2Sc2cc(Nc3ncccc3C3CC3)ccc21 [10-(But-2-yn-1-yl)-7-((3-cyclopropylpyridin-2-yl)amino)-3-fluorodibenzo[b,f][1,4]thiazepin-11 (10H)-one]
26 | < 500 |  | C#Cc1cccnc1Nc1ccc2c(c1)Sc1ccccc1C(=O)N2CC#CC [10-(But-2-yn-1-yl)-7-((3-ethynylpyridin-2-yl)amino)dibenzo[b,f][1,4]thiazepin-11 (10H)-one]
27 | < 500 |  | CC#CCN1C(=O)c2ccccc2Sc2cc(Nc3nccc(C)c3F)ccc21 [10-(But-2-yn-1-yl)-7-((3-fluoro-4-methylpyridin-2-yl)amino)dibenzo[b,f][1,4]thiazepin-11 (10H)-one]
28 | < 500 |  | CC#CCN1C(=O)c2ccccc2Sc2cc(Nc3ncc(C)cc3F)ccc21 [10-(But-2-yn-1-yl)-7-((3-fluoro-5-methylpyridin-2-yl)amino)dibenzo[b,f][1,4]thiazepin-11 (10H)-one]
29 | < 500 |  | CC#CCN1C(=O)c2ccccc2Sc2cc(Nc3nc(C)ccc3F)ccc21 [10-(But-2-yn-1-yl)-7-((3-fluoro-6-methylpyridin-2-yl)amino)dibenzo[b,f][1,4]thiazepin-11 (10H)-one]
30 | < 500 |  | CC#CCN1C(=O)c2ccccc2Sc2cc(Nc3nccc(-c4cccnc4)n3)ccc21 [10-(But-2-yn-1-yl)-7-((4-(pyridin-3-yl)pyrimidin-2-yl)amino)dibenzo[b,f][1,4]thiazepin-11 (10H)-one]
